Experimental data reported in patent US7419984B2, “Pyrimidines and uses thereof” (Cell Therapeutics, Inc., priority 2002, dated 2008).

Biological target: T1, human LPAAT-β (Homo sapiens, UniProt O15120)
T1 construct: the full-length human LPAAT-β cDNA was amplified by PCR; poly-histidine tag (N); made in house; host or cells: Sf9 insect cells (baculovirus, pFastBac HTc); the membrane fraction was used as the enzyme
T1 sequence (O15120 24-278): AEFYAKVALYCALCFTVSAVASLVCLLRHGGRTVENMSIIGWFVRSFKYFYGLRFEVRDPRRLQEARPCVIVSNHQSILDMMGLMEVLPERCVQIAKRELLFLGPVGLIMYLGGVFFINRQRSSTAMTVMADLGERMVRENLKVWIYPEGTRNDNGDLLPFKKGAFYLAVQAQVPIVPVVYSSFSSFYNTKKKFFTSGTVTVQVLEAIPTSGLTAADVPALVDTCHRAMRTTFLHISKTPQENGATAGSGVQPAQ
Experiment: LPAAT-β cell-free assay
Format: biochemical
Conditions: Sf9 cell membrane overexpressing recombinant LPAAT-β
Source text: For the construction of Baculovirus expression vectors, the full-length human LPAAT-β cDNA was amplified by PCR from the DNA template pCE9.LPAAT-β (West et al., DNA Cell Bid. 16.691-701 (1997)) using the primers 5′-[…] […] […] […]-3′ (olpb1F; SEQ ID NO:1) and 5′-[…] […] […]-3′ (olpb1R; SEQ ID NO:2). The ˜870 bp fragment generated was reamplified by PCR using the primers 5′ […] […] […] […] ATC-3′ (olpb2F; SEQ ID NO:3) and 5′-[…] […] […]-3′ (olpb1R; SEQ ID NO:2). The ˜890 bp fragment generated was then cleaved with Sal I and Xba I for insertion into pFastBac™ HTc vector (Life Technologies, Gaithersberg, M.d.) between the Sal I and Xba I sites for the generation of the plasmid pFB.LPAAT-β. This plasmid was then transformed into E. coli DH10Bac™ (Life Technologies, Gaithersberg, M.d.) for the generation of recombinant Bacmid DNA for transfection in HighFive (Invitrogen, San Diego, Calif.) or SF9 insect cells for the production of recombinant Baculovirus stocks using the protocol described in the Bac-to-Bac® Baculovirus Expression System (Life Technologies, Gaithersberg, M.d.), a eukaryotic expression system for generating recombinant baculovirus through site-specific transposition in E. coli. Viral stocks harvested from the transfected cells can then be used to infect fresh insect cells for the subsequence expression of LPAAT-β fusion protein with a poly-histidine tag and a myc-epitope near its N-terminus. The membrane fraction from these Sf9 cells would be the source of LPAAT enzyme.
For the preparation of membranes from Sf9 Cells, all steps are performed on ice or at 4° C. Sf9 cell pellets (˜10^8 cells) were thawed and resuspended in 1-2 ml of buffer A (20 mM Hepes, pH 7.5, 1 mM DTT, 1 mM EDTA, 20% w/v glycerol, 1 mM Benzamidine, 1 μg/ml soybean trypsin inhibitor (SBTI), 1 μug/ml pepstatin A) w/o DTT but with 1 mM Pefabloc. The cells were lysed by sonication using a Branson Sonifier at output=2, duty cycle=2, 10 pulses each at 10 s. with the tip of small sonicator probe submerged but not touching the walls. DTT was then added to 1 mM from a 1 M stock. The samples were centrifuged at 1500 rpm for 5 min. The low speed supernatant was saved and centrifuged (TLA 100.3 rotor, polycarbonate tubes, 2 ml/tube or 1.5 ml/tube minimum) at 100000×g for 1 hr. The high speed pellet was resuspend in Buffer A with a probe sonicator (10 pulses @ output #2 and duty cycle 20%) as a source of LPAAT enzyme.
LPAAT-β catalyzes the transfer of an acyl group from a donor such as acyl-CoA to LPA. The transfer of the acyl group from acyl-CoA to LPA leads to the release of free CoA, which can be reacted with the thiol reagent, 5,5′-dithiobis(2-nitrobenzoic acid) (DTNB). The reaction between DTNB and the free sulfhydryl group from CoA generates a yellow-colored product, 3-carboxylato-4-nitrothiophenolate (CNP), that absorbs at 413 nm. LPAAT-β derived from Sf9 cell membrane overexpressing LPAAT-β were resuspended in HEPES saline buffer (20 mM HEPES pH 7.5, 150 mM NaCl), 1 mg/ml BSA and 72 μl aliquots were distributed into 96-well microtiter plates. 8 μl of compound of interest at 200 μM dissolved in 100% DMSO was added into each well. […] of 1 mM 18:1-CoA and 1 mM sn-1-18:1 lysoPA was then added to each well to initiate the reaction and allowed to run at room temperature for 25 min. 100 μl of 1 mM DTNB in 100% ethanol was then added to each well to quench the reaction and for color development. The absorbance at 405 nm, measured using a spectrophotometer plate reader, is proportional to the activity of LPAAT-2 in the sample. This colorimetric assay was used for the high throughput screening of LPAAT inhibitors.
The radiometric assay was carried out in Sf9 cell membrane overexpressing LPAAT-β resuspended in HEPES-saline buffer, pH 7.5, 1 mg/ml BSA, 1 mM EDTA and 200 μM [^14C]18:1-CoA and 200 μM sn-1-18:1 lysoPA.

| IC50 | Compound |
| --- | --- |
| 160 nM | CCOc1ccc(Br)cc1-c1cc(Nc2ccc(C(F)(F)F)cc2)ncn1 [Example 180, [6-(5-Bromo-2-ethoxy-phenyl)-pyrimidin-4-yl]-(4-trifluoromethyl-phenyl)-amine] |
| 20 nM | CCOc1ccc(Br)cc1-c1cc(Nc2ccc(CCO)cc2)ncn1 [Example 191, 2-{4-[6-(5-Bromo-2-ethoxy-phenyl)-pyrimidin-4-ylamino]-phenyl}-ethanol] |
| 24 nM | CCOC(=O)c1cccc(Nc2cc(-c3cc(Cl)ccc3Cl)nc(N)n2)c1 [Example 170, 3-[2-Amino-6-(2,5-dichloro-phenyl)-pyrimidin-4-ylamino]-benzoic acid ethyl ester] |
| 190 nM | CCOc1ccc(Br)cc1-c1cc(Nc2ccc(C(F)(F)F)nc2)nc(N)n1 [Example 128, 6-(5-bromo-2-ethoxyphenyl)-N*4*-(6-trifluoromethylpyridin-3-yl)-pyrimidine-2,4-diamine] |
| 270 nM | COc1ccc(Cl)cc1-c1cc(Nc2ccc3ncsc3c2)nc(N)n1 [Example 8, N*4*-Benzothiazol-6-yl-6-(5-chloro-2-methoxy-phenyl)-pyrimidine-2,4-diamine] |
| 120 nM | COc1ccc(Cl)cc1-c1cc(Nc2ccc(CO)cc2)nc(N)n1 [Example 10, {4-[2-Amino-6-(5-chloro-2-methoxy-phenyl)-pyrimidin4-ylamino]-phenyl}-methanol] |
| 60 nM | CCOc1ccc(Br)cc1-c1cc(Nc2ccc(F)cc2)ncn1 [Example 192, [6-(5-Bromo-2-ethoxy-phenyl)-pyrimidin4-yl]-(4-fluoro-phenyl)-amine] |
| 28 nM | Cc1ccc(Cl)cc1-c1cc(Nc2ccc(Cl)cc2)nc(N)n1 [Example 27, 6-(5-Chloro-2-methyl-phenyl)-N*4*-(4-chloro-phenyl)-pyrimidine-2,4-diamine] |
| 3 nM | Nc1nc(Nc2ccc(Cl)cc2)cc(-c2cc(Br)ccc2OCc2ccc(Cl)cc2)n1 [Example 165, 6-[5-Bromo-2-(4-chloro-benzyloxy)-phenyl]-N*4*-(4-chloro-phenyl)-pyrimidine-2,4-diamine] |
| 100 nM | COc1ccc(Cl)cc1-c1cc(Nc2ccc3c(c2)OCO3)nc(N)n1 [Example 13, N*4*-Benzo [1,3]dioxol-5-yl-6-(5-chloro-2-methoxy-phenyl)-pyrimidine-2,4-diamine] |
| 50 nM | COc1ccc(Cl)cc1-c1cc(Nc2ccc(Cl)cc2)nc(C)n1 [Example 38, [6-(5-Chloro-2-methoxy-phenyl)-2-methyl-pyrimidin-4-yl]-(4-chloro-phenyl)-amine] |
| 110 nM | CCOc1ccc(Br)cc1-c1cc(Nc2ccc(C(C)O)cc2)nc(N)n1 (stereo not drawn) [Example 134] |
| 88 nM | CCOc1ccc(Br)cc1-c1cc(Nc2ccc(C(=O)NO)cc2)nc(N)n1 [Example 183, 4-[2-Amino-6-(5-bromo-2-ethoxy-phenyl)-pyrimidin-4-ylamino]-N-hydroxy-benzamide] |
| 670 nM | CCc1ccc(Cl)cc1-c1cc(Nc2ccc(C(F)(F)F)cc2)nc(N)n1 [Example 164, 6-(5-Chloro-2-ethyl-phenyl)-N*4*-(4-trifluoromethyl-phenyl)-pyrimidine-2,4-diamine] |
| 550 nM | Cc1ccc(C)c(-c2cc(Nc3ccc(CCO)cc3)nc(N)n2)c1 [Example 74, 2-{4-[2-Amino-6-(2,5-dimethyl-phenyl)-pyrimidin-4-ylamino]-phenyl}-ethanol] |
| 31 nM | Cc1ccc(Br)cc1-c1cc(Nc2ccc(Cl)cc2)nc(N)n1 [Example 84, 6-(5-Bromo-2-methyl-phenyl)-N*4*-(4-chloro-phenyl)-pyrimidine-2,4-diamine] |
| 8 nM | CCCOc1ccc(Br)cc1-c1cc(Nc2ccc(Cl)cc2)nc(N)n1 [Example 135, 6-(5-Bromo-2-propoxy-phenyl)-N*4*-(4-chloro-phenyl)-pyrimidine-2,4-diamine] |
| 140 nM | CCOc1ccc(Cl)cc1-c1cc(Nc2ccc(CO)cc2)nc(NC)n1 [Example 65, {4-[6-(5-Chloro-2-ethoxy-phenyl)-2-methylamino-pyrimidin4-ylamino]-phenyl}-methanol] |
| 15 nM | Cc1ccc(Cl)cc1-c1cc(Nc2ccc([N+](=O)[O-])cc2)nc(N)n1 [Example 108, 6-(5-Chloro-2-methyl-phenyl)-N*4*-(4-nitro-phenyl)-pyrimidine-2,4-diamine] |
| 140 nM | CCOc1ccc(Br)cc1-c1cc(Nc2ccc(C)c(C)c2)nc(N)n1 [Example 132, 6-(5-Bromo-2-ethoxy-phenyl)-N*4*-(3,4-dimethyl-phenyl)-pyrimidine-2,4-diamine] |
| 200 nM | CCOc1ccc(Cl)cc1-c1cc(Nc2ccc(OC)cc2)nc(N)n1 [Example 58, 6-(5-Chloro-2-ethoxy-phenyl)-N*4*-(4-methoxy-phenyl)-pyrimidine-2,4-diamine] |
| 1800 nM | Nc1nc(Nc2ccc(Cl)cc2)cc(-c2ccccc2C(F)(F)F)n1 [Example 105, N*4*-(4-Chloro-phenyl)-6-(2-trifluoromethyl-phenyl)-pyrimidine-2,4-diamine] |
| 100 nM | CCc1ccc(Cl)cc1-c1cc(Nc2ccc(CCO)cc2)nc(N)n1 [Example 175, 2-{4-[2-amino-6-(5-chloro-2-ethyl-phenyl)-pyrimidin4-ylamino]-phenyl}-ethanol] |
| 40 nM | Cc1ccc(Br)cc1-c1cc(Nc2ccc(C#N)cc2)nc(N)n1 [Example 86, 4-[2-Amino-6-(5-bromo-2-methyl-phenyl)-pyrimidin-4-ylamino]-benzonitrile] |
| 36 nM | COc1ccc(Br)cc1-c1cc(Nc2ccc(Br)cc2)nc(N)n1 [Example 162, 6-(5-Bromo-2-methoxy-phenyl)-N*4*-(4-bromo-phenyl)-pyrimidine-2,4-diamine] |
| 4 nM | Nc1nc(Nc2ccc(Cl)cc2)cc(-c2cc(Cl)ccc2OCc2ccccc2)n1 [Example 155, 6-(2-Benzyloxy-5-chloro-phenyl)-N*4*-(4-chloro-phenyl)-pyrimidine-2,4-diamine] |
| 210 nM | COc1ccc(C)c(-c2cc(Nc3ccc(Cl)cc3)nc(N)n2)c1 [Example 71, N*4*-(4-Chloro-phenyl)-6-(5-methoxy-2-methyl-phenyl)-pyrimidine-2,4-diamine] |
| 34 nM | CCOc1ccc(Br)cc1-c1cc(Nc2ccc(C(C)=O)cc2)nc(N)n1 [Example 127, 1-{4-[2-amino-6-(5-bromo-2-ethoxyphenyl)pyrimidin-4-ylamino]phenyl}ethanone] |
| 310 nM | CCOc1ccc(Cl)cc1-c1cc(Nc2ccc(CCCC(=O)O)cc2)nc(N)n1 [Example 95, 4-{4-[2-Amino-6-(5-chloro-2-ethoxy-phenyl)-pyrimidin4-ylamino]-phenyl}-butyric acid] |
| 1200 nM | CCOc1ccc(Cl)cc1-c1cc(N(C)c2ccc(Cl)cc2)nc(N)n1 [Example 122, 6-(5-chloro-2-ethoxyphenyl)-N*4*-(4-chlorophenyl)-N*4*-methylpyrimidine-2,4-diamine] |
